Here are results for 39 molecules from US20100168072A1, “Drug Combinations for the Treatment of Duchenne Muscular Dystrophy” (BIOMARIN IGA LIMITED, priority 2007, published 2010).

Bounds are passed on as bounds.

The experiment deals with Utrophin A promoter linked to a luciferase reporter gene (H2K/mdx/Utro A reporter cell line). In words: Luciferase reporter assay (murine H2K cells). The format is cell-based. Particulars: Mus musculus; final concentration of 10 μM; incubated for a further 48 hrs. As to the method: The cell line used for the screen is an immortalized mdx mouse H2K cell line that has been stably transfected with a plasmid containing ≈5 kb fragment of the Utrophin A promoter including the first untranslated […] linked to a luciferase reporter gene.
Under conditions of low temperature and interferon containing media, the cells remain as myoblasts. These are plated into 96 well plates and cultured in the presence of compound for three days. The level of luciferase is then determined by cell lysis and reading of the light output from the expressed luciferase gene utilising a plate luminometer.
The H2K/mdx/Utro A reporter cell line was passaged twice a week until ≦30% confluent. The cells were grown at 33° C. in the presence of 10% CO2
To remove the myoblasts for platting, they were incubated with Trypsin/EDTA until the monolayer started to detach.
• DMEM Gibco 41966 • 20% FCS • 1% Pen/Strep • 1% glutamine • 10 mls Chick embryo extract • Interferon(1276 905 Roche) Add fresh 10 μl/50 mls medium
The H2K/mdx/Utro A reporter cell line cells were plated out into 96 well plates (Falcon 353296, white opaque) at a density of approximately 5000 cells/well in 190 μl normal growth medium. The plates were then incubated at 33° C. in the presence of 10% CO2 for 24 hrs.
Compounds were dosed by adding 10 μl of diluted compound to each well giving a final concentration of 10 μM. The plates were then incubated for a further 48 hrs
Cells were then lysed in situ following the manufacture's protocols (Promega Steady-Glo Luciferase Assay System (E2520). Then counted for 10 seconds using a plate luminometer (Victor1420).
A general note: In a reporter assay the amount or activity of a reporter protein is the signal.
`CC(C)S(=O)(=O)c1ccc2cn(-c3ccc(Cl)cc3)nc2c1` [Example 56, 2-(4′-Chlorophenyl)-6-(isopropylsulfonyl)-2H-indazole]: the activity at 10 µM is more than 401%. As for `Cc1cc2nn(-c3ccc(Cl)cc3)nc2cc1NC(=O)C(C)C` [Example 10, N-(2-(4-chlorophenyl)-6-methyl-2H-benzo[d][1,2,3]triazol-5-yl)isobutyramide], the figure is 201 to 300%. To `Cc1cc2nn(-c3ccc(Cl)cc3)nc2cc1N` [Example 43, 2-(4-chlorophenyl)-6-methyl-2H-benzo[d][1,2,3]triazol-5-amine] belongs more than 401%. `CCC(=O)Nc1cc2nn(-c3ccc(N(CC)CC)cc3)nc2cc1C` [Example 14, N-(2-(4-(diethylamino)phenyl)-6-methyl-2H-benzo[d][1,2,3]triazol-5-yl)propionamide]: the activity at 10 µM was less than 200%. Take `CCCC(=O)Nc1ccc2nn(-c3ccc(N(CC)CC)cc3)nc2c1` [Example 24, N-(2-(4-(diethylamino)phenyl)-2H-benzo[d][1,2,3]triazol-5-yl)butyramide]: the activity at 10 µM is less than 200%. As for `CC(=O)Nc1ccc2nn(-c3ccc(Cl)cc3)nc2c1` [Example 39, N-(2-(4-chlorophenyl)-2H-benzo[d][1,2,3]triazol-5-yl)acetamide], the figure is more than 401%; as for `CCN(CC)c1ccc(-n2nc3ccc(NC(=O)c4ccc(OC)cc4)cc3n2)cc1` [Example 30, N-(2-(4-(diethylamino)phenyl)-2H-benzo[d][1,2,3]triazol-5-yl)-4-methoxybenzamide], less than 200%. On to `O=[N+]([O-])c1ccc2cn(-c3ccc(Cl)cc3)nc2c1` [Example 45, 2-(4-chlorophenyl)-6-nitro-2H-indazole], for which the activity at 10 µM is less than 200%.

Turning to `CCC(=O)Nc1cc2nn(-c3ccc(Cl)cc3)nc2cc1C` [Example 7, N-(2-(4-chlorophenyl)-6-methyl-2H-benzo[d][1,2,3]triazol-5-yl)propionamide], the activity at 10 µM was less than 200%. Turning to `CCN(CC)c1ccc(-n2nc3ccc(NC(=O)c4ccc(N(C)C)cc4)cc3n2)cc1` [Example 33, N-(2-(4-(diethylamino)phenyl)-2H-benzo[d][1,2,3]triazol-5-yl)-4-(dimethylamino)benzamide], the activity at 10 µM is less than 200%. To `CCN(CC)c1ccc(-n2nc3ccc(NC(=O)c4ccccc4)cc3n2)cc1` [Example 29, N-(2-(4-(diethylamino)phenyl)-2H-benzo[d][1,2,3]triazol-5-yl)benzamide] belongs less than 200%; to `CCCC(=O)Nc1ccc2nn(-c3ccc(Cl)cc3)nc2c1` [Example 36, N-(2-(4-chlorophenyl)-2H-benzo[d][1,2,3]triazol-5-yl)butyramide], 301 to 400%. Turning to `CS(=O)(=O)c1ccc2nn(-c3ccc(Cl)cc3)[n+]([O-])c2c1` [Example 47, 2-(4-chlorophenyl)-6-(methylsulfonyl)-2H-benzo[d][1,2,3]triazole 1-oxide], the activity at 10 µM is less than 200%.

Take `CCN(CC)c1ccc(-n2nc3ccc(NC(=O)c4ccncc4)cc3n2)cc1` [Example 21, N-(2-(4-(diethylamino)phenyl)-2H-benzo[d][1,2,3]triazol-5-yl)isonicotinamide]: the activity at 10 µM is less than 200%. As for `Cc1cc2nn(-c3ccc(Cl)cc3)nc2cc1NC(=O)c1cccnc1` [Example 1, N-(2-(4-chlorophenyl)-6-methyl-2H-benzo[d][1,2,3]triazol-5-yl)nicotinamide], the figure is 301 to 400%; as for `Nc1ccc2nn(-c3ccc(Cl)cc3)nc2c1` [Example 38, 2-(4-chlorophenyl)-2H-benzo[d][1,2,3]triazol-5-amine], less than 200%; as for `CCN(CC)c1ccc(-n2nc3ccc(NC(=O)C(C)C)cc3n2)cc1` [Example 26, N-(2-(4-(diethylamino)phenyl)-2H-benzo[d][1,2,3]triazol-5-yl)isobutyramide], less than 200%. `CCN(CC)c1ccc(-n2nc3ccc(NC(=O)c4cccnc4)cc3n2)cc1` [Example 20, N-(2-(4-(diethylamino)phenyl)-2H-benzo[d][1,2,3]triazol-5-yl)nicotinamide]: the activity at 10 µM was 201 to 300%. As for `CCN(CC)c1ccc(-n2nc3ccc(N)cc3n2)cc1` [Example 19, 2-(4-(diethylamino)phenyl)-2H-benzo[d][1,2,3]triazol-5-amine], the figure is 301 to 400%. To `COc1ccc(C(=O)Nc2cc3nn(-c4ccc(Cl)cc4)nc3cc2C)cc1` [Example 4, N-(2-(4-chlorophenyl)-6-methyl-2H-benzo[d][1,2,3]triazol-5-yl)-4-methoxybenzamide] belongs 201 to 300%; to `CCN(CC)c1ccc(-n2nc3ccc(NC(C)=O)cc3n2)cc1` [Example 22, N-(2-(4-(diethylamino)phenyl)-2H-benzo[d][1,2,3]triazol-5-yl)acetamide], 201 to 300%. To `CN1CCN(c2ccc(-n3nc4ccc(N)cc4n3)cc2)CC1` [Example 42, 2-(4-(4-methylpiperazin-1-yl)phenyl)-2H-benzo[d][1,2,3]triazol-5-amine] belongs less than 200%. `CS(=O)(=O)c1ccc2nn(-c3ccc4ccccc4c3)nc2c1` [Example 55, 5-(Methylsulfonyl)-2-(naphthalen-2-yl)-2H-benzo[d][1,2,3]triazole]: the activity at 10 µM was more than 401%. To `CC(=O)Nc1cc2nn(-c3ccccc3)nc2cc1C` [Example 67, N-(6-methyl-2-phenyl-2H-benzo[d][1,2,3]triazol-5-yl)acetamide] belongs 201 to 300%; to `CS(=O)(=O)c1ccc2nn(-c3ccc(Cl)c(Cl)c3)nc2c1` [Example 50, 2-(3,4-dichlorophenyl)-5-(methylsulfonyl)-2H-benzo[d][1,2,3]triazole], 201 to 300%. Regarding `COc1ccc(-n2nc3cc(C)c(NC(C)=O)cc3n2)cc1` [Example 66, N-(2-(4-methoxyphenyl)-6-methyl-2H-benzo[d][1,2,3]triazol-5-yl)acetamide], the activity at 10 µM was less than 200%.

In the case of `CS(=O)(=O)c1ccc2nn(-c3ccc(Cl)cc3)nc2c1` [Example 49, 2-(4-chlorophenyl)-5-(methylsulfonyl)-2H-benzo[d][1,2,3]triazole], the activity at 10 µM was less than 200%. To `Nc1ccc2nn(-c3ccc(N4CCCCC4)cc3)nc2c1` [Example 40, 2-(4-(piperidin-1-yl)phenyl)-2H-benzo[d][1,2,3]triazol-5-amine] belongs 201 to 300%; to `CCN(CC)c1ccc(-n2nc3ccc(NC(=O)c4ccccc4OC)cc3n2)cc1` [Example 31, N-(2-(4-(diethylamino)phenyl)-2H-benzo[d][1,2,3]triazol-5-yl)-2-methoxybenzamide], less than 200%; to `COc1ccccc1C(=O)Nc1cc2nn(-c3ccc(Cl)cc3)nc2cc1C` [Example 5, N-(2-(4-chlorophenyl)-6-methyl-2H-benzo[d][1,2,3]triazol-5-yl)-2-methoxybenzamide], less than 200%. Take `CCN(CC)c1ccc(-n2nc3cc(C)c(NC(=O)c4ccco4)cc3n2)cc1` [Example 18, N-(2-(4-(diethylamino)phenyl)-6-methyl-2H-benzo[d][1,2,3]triazol-5-yl)furan-2-carboxamide]: the activity at 10 µM was less than 200%. In the case of `CS(=O)(=O)c1ccc2nn(-c3ccc4ccccc4c3)[n+]([O-])c2c1` [Example 54, 6-(Methylsulfonyl)-2-(naphthalen-2-yl)-2H-benzo[d][1,2,3]triazole 1-oxide], the activity at 10 µM is 201 to 300%.

As to `CCS(=O)(=O)c1ccc2nn(-c3ccc(Cl)c(Cl)c3)nc2c1` [Example 51, 2-(3′,4′-dichlorophenyl)-5-(ethylsulfonyl)-benzotriazole], the activity at 10 µM is 301 to 400%. To `CCN(CC)c1ccc(-n2nc3ccc(NC(=O)c4ccco4)cc3n2)cc1` [Example 27, N-(2-(4-(diethylamino)phenyl)-2H-benzo[d][1,2,3]triazol-5-yl)furan-2-carboxamide] belongs less than 200%; to `Cc1cc2nn(-c3ccc(Cl)cc3)nc2cc1NC(=O)c1cccs1` [Example 6, N-(2-(4-chlorophenyl)-6-methyl-2H-benzo[d][1,2,3]triazol-5-yl)thiophene-2-carboxamide], 301 to 400%; to `CC(=O)Nc1ccc2nn(-c3ccc(F)cc3)nc2c1` [Example 69, N-(2-(4-fluorophenyl)-2H-benzo[d][1,2,3]triazol-5-yl)acetamide], 201 to 300%. Turning to `CCC(=O)Nc1ccc2nn(-c3ccc(Cl)cc3)nc2c1` [Example 35, N-(2-(4-chlorophenyl)-2H-benzo[d][1,2,3]triazol-5-yl)propionamide], the activity at 10 µM is more than 401%. To `CC(C)C(=O)Nc1ccc2cn(-c3ccc(Cl)cc3)nc2c1` [Example 46, N-(2-(4-chlorophenyl)-2H-indazol-6-yl)isobutyramide] belongs more than 401%. For the molecule `Cc1cc2nn(-c3ccc(Cl)cc3)nc2cc1NC(=O)c1ccccc1` [Example 3, N-(2-(4-chlorophenyl)-6-methyl-2H-benzo[d][1,2,3]triazol-5-yl)benzamide], the activity at 10 µM is less than 200%.
